Measurements published in patent US20090036410A1, “Structured Phospholipids” (BTG INTERNATIONAL LIMITED, priority 2004, published 2009).
Each block holds one compound with its values, some of them ahead of it.

How the values were obtained:
[1] = Storage stability / handling of the isolated phospholipid; type: physicochemical
Excerpt: Suitable diluents and carriers can be found in the literature in texts such as Remington's Pharmaceutical Sciences. One particular material investigated by the inventors has been PEG (polyethylene glycol) eg. PEG200. This can be used at amounts between 1 and 99% PEG to 99% to 1% by weight of active phospholipid, preferably 20 to 80% PEG to 80 to 20% of phospholipid and more preferably 40 to 60% PEG to 60 to 40% by weight of phospholipid.
The invention provides a first method of its preparation of compounds GGPc, DHGLADHGLAPc and AAPc in a one step process (scheme 5, method A) by reaction of sn-glycerophosphocholine cadmium complex with γ-linolenic, dihomo-γ-linolenic, or arachidonic anhydride (formed eg. from the n-6 acid and dicylohexylcarbodiimide). Purification of the crude product uses eg. copper sulfate washes to remove DMAP and column chromatography to take out other by-products. The first batch of product for the γ-linolenic product (44 g, 85% purity) was obtained as a yellow wax.
On a 7 g scale higher purity GGPc could be obtained by more rigorous chromatography. Furthermore freeze-drying a dioxan solution of this material gave a white solid. This solid was hygroscopic and gained weight and went to a foam on prolonged exposure to the atmosphere.

[2] = system: CREAE model MOG in C57BL mice; assay: CREAE model, MOG-induced, clinical EAE score; type: in vivo
acute rat EAE = settings: depending on dose; cited from earlier work
EAE = settings: guinea-pig; cited from earlier work

purity after storage (deterioration) ([1]; over 6 months, first batch, initially 85% purity yellow wax, turned brown suggesting oxidation): 70%
hygroscopicity of freeze-dried white solid ([1]; prolonged exposure to the atmosphere, gained weight and went to a foam): hygroscopic
Compound: CCCCC/C=C\C/C=C\C/C=C\CCCCC(=O)OC[C@H](COP(=O)([O-])OCC[N+](C)(C)C)OC(=O)CCCC/C=C\C/C=C\C/C=C\CCCCC [GGPc, 1,2-Di(γ-linolenyl)-sn-glycerophosphocholine]
effect on EAE score compared to CCC (dose response curve) ([2]; 100 microL dose, p<0.050 compared to CCC (150 microL)): significant effect
protection / severity of CREAE ([2]; 100 ul of 50% phospholipid in PEG200): protection/reduced severity
efficacy in the CREAE model compared to the lipid GGG of PCT/GB2004/003524 ([2]; MOG in C57BL mice, oral, initial results): superior in efficacy
protection in CREAE ([2]; dose 100 ul, oral): excellent protection
shape of dose response curve ([2]; doses 25, 50, 100 and 200 microL): bell shaped curve
effect on EAE score (dose response curve) ([2]; higher dose of 200microL): no effect

Compound: CCCCC/C=C\C/C=C\CCCCCCCC(=O)O [linoleic acid]
protection in acute rat EAE (acute rat EAE): dose-dependent action on the clinical severity but did not abolish it
effect on incidence and severity of EAE (EAE): partially suppresses

Compound: CCCCC/C=C\C/C=C\C/C=C\CCCCC(=O)O [γ-linolenic acid]
protection in acute rat EAE (acute rat EAE): fully protective
